According to patent US11512353B2, “Method to predict response to neuropsychiatric drugs using variation in the serotonin 7 receptor (HTR7) gene” (The Regents of the University of California, priority 2018, dated 2022):

Assays:
[1] = target: norepinephrine transporter (Homo sapiens, UniProt P23975); details: cited from earlier work
[2] = test system: outpatients with moderate to severe unipolar depression; test: Prospective GENDEP cohort: association of rs7905446 genotype with antidepressant remission; assay type: in vivo, human; details: TT vs TG/GG, logistic regression adjusted for sex, age and center ID, week 12, remission MADRS≤10
Method: Statistical analysis. The association between drug response and allelic SNPs identified from pooled-sequencing were performed using logistic regression (PLINK version 1.9).. The association between drug response and […] genotype was performed using logistic regression within Caucasian population. χ^2 tests were used to compare the sex distribution between responder and non-responder. Group differences were analyzed using Student's T-test. […] Replication study II in the Genome-based Therapeutic Drugs for Depression ([…]) study. […] is a multicenter part-randomized open-label pharmacogenetic study of 811 outpatients with moderate to severe unipolar depression diagnosed according to DSM-IV and established in the semi-structured SCAN interview. Patients were aged 19 to 72 years with European ancestry for at least two generations. Patients with personal and family history of schizophrenia or bipolar affective disorder and current dependence on alcohol or drugs were excluded from the study. […] Patients with contraindications for one of the drugs were allocated nonrandomly to the other antidepressant. […] The study was approved by ethics boards of all the participating centers. All participants provided written informed consent.

[3] = test system: subjects with BD, MDD or SABP diagnosis; test: Retrospective cohort: association of rs7905446 genotype with self-reported SSRI response (logistic regression); assay type: in vivo, human; details: TT vs TG/GG, TT associated with poor response, logistic regression adjusted for sex and age, Caucasian subjects
Method: SNP genotyping. Genotyping of rs7905446 (T/G) was performed using TaqMan SNP genotyping assay on 7900HT Fast Real-Time PCR System (Thermo Fisher Scientific, Waltham, Mass., USA) as previously described. The assay included negative controls and was run with the following condition: 95° C. for 10 min followed by 40 cycles of 92° C. for 15 s and 60° C. for 1 min. The genotyping success rate was >95%. Twenty percent of the samples were genotyped in duplicate, with 100% reproducibility.
Statistical analysis. The association between drug response and allelic SNPs identified from pooled-sequencing were performed using logistic regression (PLINK version 1.9).. The association between drug response and rs7905446 genotype was performed using logistic regression within Caucasian population. χ^2 tests were used to compare the sex distribution between responder and non-responder. Group differences were analyzed using Student's T-test. P value<0.05 were considered statistically significant.
Subjects. All subjects (n=497) were ascertained as part of several cohorts collected for genetic studies of BD. Subjects were identified through VA and UCSD clinics, as well as, advertisement and patient support groups. […]
Assessment of SSRI response. […] Subject's response to SSRI's over their lifetime was assessed based on self-reporting. […]

HTR7 [4] = target: HTR7 (Mus musculus, UniProt P32304); details: in vivo; cited from earlier work
Chain of HTR7 (Mus musculus, UniProt P32304) (P32304 whole entry): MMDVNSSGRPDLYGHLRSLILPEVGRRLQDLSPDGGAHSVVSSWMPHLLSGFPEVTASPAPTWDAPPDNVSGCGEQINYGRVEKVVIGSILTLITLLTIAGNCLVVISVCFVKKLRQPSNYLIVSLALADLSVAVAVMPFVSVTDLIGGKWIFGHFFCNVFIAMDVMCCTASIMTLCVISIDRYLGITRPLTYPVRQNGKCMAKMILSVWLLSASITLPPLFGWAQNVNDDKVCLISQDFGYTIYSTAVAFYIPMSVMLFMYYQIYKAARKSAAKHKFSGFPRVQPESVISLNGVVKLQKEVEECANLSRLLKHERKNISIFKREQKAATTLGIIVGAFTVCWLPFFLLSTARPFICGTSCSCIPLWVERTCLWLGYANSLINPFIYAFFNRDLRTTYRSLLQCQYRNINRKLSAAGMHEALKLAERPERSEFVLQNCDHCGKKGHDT

HTR7 [5] = target: HTR7 (Homo sapiens, UniProt P34969); details: cited from earlier work
Chain of HTR7 (Homo sapiens, UniProt P34969) (P34969 whole entry): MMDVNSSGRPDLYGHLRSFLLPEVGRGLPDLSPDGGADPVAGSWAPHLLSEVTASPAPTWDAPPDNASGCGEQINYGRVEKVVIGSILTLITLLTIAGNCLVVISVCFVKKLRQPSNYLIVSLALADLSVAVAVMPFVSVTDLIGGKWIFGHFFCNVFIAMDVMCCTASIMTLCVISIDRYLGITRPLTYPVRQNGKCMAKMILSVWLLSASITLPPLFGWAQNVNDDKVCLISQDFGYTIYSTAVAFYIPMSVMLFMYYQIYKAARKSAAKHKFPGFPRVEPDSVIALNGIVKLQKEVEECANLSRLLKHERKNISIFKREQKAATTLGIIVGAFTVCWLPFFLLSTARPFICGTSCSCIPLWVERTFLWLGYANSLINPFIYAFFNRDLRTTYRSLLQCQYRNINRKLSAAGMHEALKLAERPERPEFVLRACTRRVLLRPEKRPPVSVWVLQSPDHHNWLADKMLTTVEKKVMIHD

HTR7 [6] = details: chronic treatment; cited from earlier work

Chain of norepinephrine transporter (P23975 whole entry, species assumed): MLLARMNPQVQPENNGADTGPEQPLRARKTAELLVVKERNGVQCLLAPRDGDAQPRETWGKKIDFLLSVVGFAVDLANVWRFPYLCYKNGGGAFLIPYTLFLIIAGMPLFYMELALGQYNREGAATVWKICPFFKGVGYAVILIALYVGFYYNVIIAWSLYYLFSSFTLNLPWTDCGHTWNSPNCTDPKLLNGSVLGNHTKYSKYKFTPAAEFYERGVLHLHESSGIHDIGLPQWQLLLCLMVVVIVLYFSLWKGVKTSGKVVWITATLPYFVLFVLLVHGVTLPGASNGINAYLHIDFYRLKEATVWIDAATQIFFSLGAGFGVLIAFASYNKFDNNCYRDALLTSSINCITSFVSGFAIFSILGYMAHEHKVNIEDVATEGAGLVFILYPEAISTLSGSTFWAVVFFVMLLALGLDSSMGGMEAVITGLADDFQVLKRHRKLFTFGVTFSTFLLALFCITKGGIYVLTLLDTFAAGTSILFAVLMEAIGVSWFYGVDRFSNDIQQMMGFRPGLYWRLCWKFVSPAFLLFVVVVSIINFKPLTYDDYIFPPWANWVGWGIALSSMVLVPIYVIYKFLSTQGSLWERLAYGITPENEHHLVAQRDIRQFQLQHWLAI

SMILES	affinity to HTR7 (HTR7 [5])	also measured
CN(C)CCC[C@@]1(c2ccc(F)cc2)OCc2cc(C#N)ccc21 [Escitalopram]		effect on norepinephrine transporter [1]: no direct effect; OR, Rs7905446, remitter vs. non-remitter [2]: 1.669
CNCCC=C1c2ccccc2CCc2ccccc21 [Nortriptyline, Nortyptiline]		OR, Rs7905446, remitter vs. non-remitter [2]: 0.694
Fc1ccc([C@@H]2CCNC[C@H]2COc2ccc3c(c2)OCO3)cc1 [Paroxetine]		OR, Rs7905446, responder vs. non-responder [3]: 5.250
CC1CCN(CC[C@H]2CCCN2S(=O)(=O)c2cccc(O)c2)CC1 [SB-269970]		effects of SSRI and NARI on blockade of HTR7 (HTR7 [4]): potentiate
CCN1CCCC1CNC(=O)c1cc(S(=O)(=O)CC)c(N)cc1OC (stereo not drawn) [amisulpride, Amisulpride]	high affinity	
CN(C)CCC=C1c2ccccc2CCc2ccccc21 [amitriptyline, Amitriptyline]	high affinity	
Clc1ccc2c(c1)C(N1CCNCC1)=Nc1ccccc1O2 [amoxapine, Amoxapine]	high affinity	
CNCCC(Oc1ccc(C(F)(F)F)cc1)c1ccccc1 (stereo not drawn) [fluoxetine, Fluoxetine]		HTR7 expression (HTR7 [6]): downregulates
O=C1[C@@H]2[C@H]3CC[C@H](C3)[C@@H]2C(=O)N1C[C@@H]1CCCC[C@H]1CN1CCN(c2nsc3ccccc23)CC1 [lurasidone, Lurasidone]	high affinity	
O=C1[C@H]2CCCC[C@H]2C(=O)N1CCCCN1CCN(c2nsc3ccccc23)CC1 [perospirone, Perospirone]	high affinity	
Cc1nc2n(c(=O)c1CCN1CCC(c3noc4cc(F)ccc34)CC1)CCCC2 [risperidone, Risperidone]	high affinity	
